PMC4449000, “Acyclovir Has Low but Detectable Influence on HLA-B*57:01 Specificity without Inducing Hypersensitivity” (PLoS ONE, 2015)
“And” between values parts separate entries of the source, which are not always exact repeats. Identical values can stand only once. Counter-ions that a name gives are not always drawn. Like-named read-outs stand apart in the source and are kept apart here. Ends that are not written are not given here.

Experiments:
purified HLA-B*57:01 [1] = biological target: T1, purified HLA-B*57:01 (Homo sapiens, UniProt P01889, D201E/D98Y/E176V/E187L/E204Q/E69M/E70A/G107R/I90N/K202T/L105A/L119I/N104I/N87E/Q89R/Q94S/R106L/R155S/R180L/R86G/S101N/S121V/S35A/S48A/T118I/V36M/Y140S/Y91M); assay: HLA binding assay: inhibition of binding of a radiolabeled standard peptide to purified HLA-B*57:01 (competition); details: for IC50: Mean ± SEM, S5 Fig, unit inferred; for number of the 7 peptides ending in I with increased affinity for HLA-B*57:01: 7 individual peptides with I at P9, two independent runs in triplicates (Fig 5)
[2] = test system: HLA-B*57:01 positive PBMC; assay: Culture and detection of drug responsive T cells (intracellular IFN-γ, flow cytometry); type: cell-based, human; details: 10 μg/mL drug, 14 day culture, restimulation with drug treated C1R.B57; two of two donors
Method: Drug responsive short-term T cell lines were produced from cryopreserved PBMC, as previously described. […] From day 3 and every 3 days, 50% of media was replaced and 20 U/ml of recombinant human interleukin (IL)-2 (Peprotech) was added to cultures. […] Samples were surface labeled for CD4 and CD8 expression on ice and then fixed and permeabilized for the detection of intra-cellular IFN-γ, as previously described. Abacavir responsive cells were then detected using flow cytometry (Gallios; Beckman Coulter). Lymphocytes were gated on the basis of forward and side scatter properties. The lymphocyte gate was then gated for CD8, but not CD4, positivity using a Boolean logic gate. The frequency of CD8 and IFN-γ double positive cells was determined using Kaluza software (Beckman Coulter).

[3] = test system: HLA-B*57:01 single allele transfected 721.221 cell line; assay: Peptide elution and LC-MS identification from drug-treated cells; type: cell-based, human
Method: For elution studies, 4–5 x 10^9 cells from the HLA-B*57:01 single allele transfected 721.221 cell line were used. Treated cells were incubated with acyclovir at a concentration of 500 μg/mL for 14 hr at 37°. Cells were harvested and stored at -80°C. Upon thawing, cells were lysed using cell lysis buffer in the presence of protease inhibitors. The lysate was centrifuged at 100,000 x g for 1 hr and the supernatant was collected and passed through a 0.8/0.2 μm filter (VWR International, TX). The filtrate was collected and passed through a sepharose CL-4B (Sigma-Aldrich, MO) column to capture any remaining materials in the lysate that may clog the antibody columns. The filtrate was then passaged through a column packed with protein A sepharose (PAS) beads (sigma) coated with MK-D6 (MTCC HB-3, VA) antibody which served to as an irrelevant antibody (specific for the mouse class II molecule, I-A^d) used to derive a negative control peptide extract. Next, the filtrate was passed through a second PAS column coated with W6/32 antibody (MTCC HB-95) which captures HLA class I molecules. The columns were washed sequentially with: 1) 2 column volumes of lysis buffer, 2) 20 column volumes of 20 mM Tris-HCL (pH 8.0, 150 mM NaCl), 3) 20 column volumes of 20 mM Tri-HCl (pH 8.0, 1.0 M NaCl), and 4) 20 column volumes of 20 mM Tris-HCl (pH 8.0), and then eluted with 4 column volumes of 0.2 M glacial acetic acid. The eluted peptides were then collected and spun at 3,500g at 4°C until 98% of the solution had passed through Millipore ultrafiltration units with a 3,500 Da cut-off (EMD Millipore, MA) to exclude β-2 microglobulin. The filtrate was then collected and concentrated in vacuo for LC-MS analysis.
Peptides were analyzed by nanoflow high-performance liquid chromatography (HPLC)/microelectrospray ionization, coupled directly to a Thermo Fisher Scientific FT-ICR mass spectrometer, equipped with a home-built, front-end electron transfer dissociation (FETD) source. An aliquot of peptide sample was taken to dryness in a vacuum concentrator. Peptides were amidated in a solution that contained 1M histamine-HCl (20 μL) in 1M pyridine-HCl buffer and 0.1M EDC in pyridine-HCl buffer. The solution was sonicated for 3 hours before being dried in a vacuum concentrator and then reconstituted in 0.1% acetic acid.
Data were acquired as previously described. In brief, a pre-column, loaded with 5×10^7 to 2×10^8 cell equivalents of HLA-B*57:01 eluted peptides was connected with polytetrafluoroethylene tubing (0.06-in. o.d. and 0.012-in. i.d.; Zeus Industrial Products) to the end of an analytical HPLC column (360 μm o.d.×50 μm i.d.) containing 6–7 cm of C18 reverse-phase packing material (5-μm particles; YMC). […]

HLA-B*57:01 = HLA-B*57:01 (Homo sapiens, UniProt P01889, D201E/D98Y/E176V/E187L/E204Q/E69M/E70A/G107R/I90N/K202T/L105A/L119I/N104I/N87E/Q89R/Q94S/R106L/R155S/R180L/R86G/S101N/S121V/S35A/S48A/T118I/V36M/Y140S/Y91M); assay: Direct binding of radiolabeled […] to HLA-B*57:01 without competitor peptide; details: increasing doses of drug, four experimental runs in triplicates (Fig 6A)
Method: (§1) Quantitative assays to measure the binding affinity of peptides to purified HLA-B*57:01 molecules based on the inhibition of binding of a radiolabeled standard peptide were performed as previously described. Briefly, 1–10 nM of radiolabeled peptide was co-incubated at room temperature with 1 nM to 1 μM purified HLA-B*57:01 in the presence of 1–3 μM human β2-microglobulin (Scripps Laboratories; San Diego, CA) and a mixture of protease inhibitors. After a 2-day incubation, binding of the radiolabeled peptide to the MHC class I molecule was determined by capturing MHC/peptide complexes on Greiner Lumitrac 600 microplates (Greiner Bio-One; Monroe, North Carilina) coated with the W6/32 antibody, and measuring bound counts per minute (cpm) using the TopCount microscintillation […] counter (PerkinElmer; Waltham, Massachusetts). For competition assays, the concentration of peptide yielding IC50 of the binding of the radiolabeled peptide was calculated. Peptides were typically tested at six different concentrations covering a 100,000-fold dose range.
(§2) For direct binding studies in the absence of a competitor peptide, a purified peptide with sequence […] was ordered from Synthetic Biomolecules (San Diego, CA) and its affinity for either HLA-B*57:01 or HLA-B*58:01 was tested in the presence or absence of abacavir, or acyclovir, in a dose dependent manner.

HLA-B*58:01 = HLA-B*58:01 (Homo sapiens, UniProt P01889, A329T/C349S/D201E/D98Y/E176V/E187L/E204Q/E69T/G107R/I218V/I90N/K202T/L105A/L119I/N104I/N87E/Q89R/Q94S/R106L/R155S/R180L/R86G/S101N/S121R/S35A/S48A/T118I/V127L/V306I/V36M/Y140S/Y91M); assay: Direct binding of radiolabeled […] to HLA-B*58:01 (control); details: control allele (Fig 6B)
Method: as §1, §2

purified HLA-B*57:01 [4] = biological target: T1, purified HLA-B*57:01; details: previously observed; cited from earlier work
[5] = test system: HLA-B*57:01 single allele transfected 721.221 cell line; details: abacavir; not measured in this paper, no reference printed at b57; cited from earlier work

Compound	IC50 (purified HLA-B*57:01 [1]; 0.5 mg/mL acyclovir, p < 0.01 vs vehicle, read-out: IC-50 for HLA-B*57:01, 0.5 mg/mL acyclovir) [µM]	IC50 (purified HLA-B*57:01 [1]; vehicle, read-out: IC-50 for HLA-B*57:01, vehicle) [µM]	drug specific CD8+/IFN-γ+ T-cell response in PBMC primed and restimulated with the same drug [2]	unique peptide sequences identified from the drug treated sample only ([3]; acyclovir 500 μg/mL, 14 hr, 37°, excludes 91 sequences present in both samples)	number of eluted peptides with a C-terminal isoleucine in the presence of the drug ([3]; acyclovir 500 μg/mL, 14 hr, includes three peptides present in both samples, vs four in untreated, p = 0.073)	Number of peptides that do not have isoleucine at C terminus (Treated) ([3]; acyclovir treated cells, peptides found in both treated and untreated samples not included)	Number of peptides that have isoleucine at C terminus (Treated) ([3]; acyclovir treated cells, peptides found in both treated and untreated samples not included, one-sided Fisher's exact test p = 0.0726)	number of the 7 peptides ending in I with increased affinity for HLA-B*57:01 (purified HLA-B*57:01 [1])	change in HLA-B*57:01 affinity of peptides ending in C (purified HLA-B*57:01 [1]; individual peptides with C at P9 (S4 Fig))	effect on HLA-B*57:01 binding affinity for three 9-mer peptides with a C-terminal valine (purified HLA-B*57:01 [1]; screen of seven drugs, one experimental run in quadruplicates (S3 Fig))	increase in the level of bound peptide KAAKYRVSV on HLA-B*57:01 (HLA-B*57:01; radiolabeled KAAKYRVSV) [fold]	effect of drug on binding of KAAKYRVSV to HLA-B*58:01 (HLA-B*58:01; radiolabeled KAAKYRVSV)	increase in affinity for I and V peptides in the presence of abacavir (PSCPL) (purified HLA-B*57:01 [4]) [fold]	peptides with a C-terminal valine presented exclusively in the presence of the drug [5]	largest change / increase of peptide binding affinity (IC50) for HLA-B*57:01 in the presence of the drug (purified HLA-B*57:01 [1]; individual peptides, summary statement)	increase in the level of bound peptide […] on HLA-B*57:01 (HLA-B*57:01; radiolabeled […])	effect of drug on binding of […] to HLA-B*58:01 (HLA-B*58:01; radiolabeled […])
RARQLNYTI	0.0071 ± 0.001	0.0137 ± 0.0013	–	–	–	–	–	–	–	–	–	–	–	–	–	–	–
Nc1nc2c(ncn2COCCO)c(=O)[nH]1 [acyclovir]	–	–	could not detect any acyclovir specific response	169	twelve	160	9	two	None of the peptides ending in C showed any change	small but consistent increase	2	unaffected	–	–	–	–	–
Nc1nc(NC2CC2)c2ncn([C@H]3C=C[C@@H](CO)C3)c2n1 [abacavir, Abacavir sulfate]	–	–	expanded population of CD8 positive / IFN-γ positive T-cells	–	–	–	–	all seven	–	–	–	–	10	15	≤ 1000 fold and 1,000 fold	up to 5 fold	unaffected
